Data on one compound can be found in patent US10149644B2, “Curcumin derivatives for amyloid-β plaque imaging” (The General Hospital Corporation, priority 2008, dated 2018).

Entries after “also recorded” stand apart in the source; their conditions may differ.

Data set [1] is described as follows: BBB penetration and blood/brain clearance. It counts as in vivo, Balb/c mice. The following applies: 10 mg/kg i.v. Here is the method: To test the BBB penetrating ability of the probe, Balb/c mice were used (n=3). […] Mice were perfused with saline solution and the brains were excised at 30 min., 1 h, 2 h, and 4 h after injection. Each brain sample was homogenized with 2.0 ml water and 3.0 ml ethyl acetate, and the homogenate was centrifuged for 5 min at 2,500 rpm. The fluorescence intensities of the ethyl acetate supernatant were recorded. The actual amounts (pmol) of the extracted probe were calculated according to the standard curve of CRANAD-2 in ethyl acetate.
Prior to perfusion, blood samples were taken at each time point to monitor the probe blood clearance. The blood samples were diluted with PBS buffer to 1.0 mL, followed by ethyl acetate (2.0 mL) extraction. The extractions were subjected to fluorescence intensity measurement, and the actual amounts of the probe for each mouse were calculated as the procedure for brain extraction described above.
In addition, to follow the probe clearance the inventors drew blood samples at each time point. […] LC-MS results also confirmed that the major component of the ethyl acetate extraction was CRANAD-2.

A further data set has as its system Tg2576 mice. The experiment in a line: In vivo NIR imaging. Here is the method:
In vivo NIR imaging was performed using Kodak Imaging station 2000MM. For fluorescence excitation, three laser diodes at 660 nm with a total power of 10 mW/cm2 have been used yielding a uniform illumination of the whole animal. The fluorescent light emitted from the sample (mouse) was detected by a charge-coupled device (CCD) camera (Hamamatsu ORCA) equipped with a focusing lens system (macro lens 60 mm, 1:2.8, Nikon). The image matrix comprised of 532×256 pixels. A bandpass filter was used for the selection of the detection wavelength (700 nm). Integration time default was selected at 30 s. Images were acquired Kodak 1DTM 3.6.3 Network software and analysed using the Kodak™ 1D Analysis software.
Mice (n=3 for Tg2576 and n=3 for the littermates) were shaved before background imaging, and were i.v. injected CRANAD-2 (5.0 mg/kg) for each mouse. Fluorescence signals from the brain were recorded at pre-injection, and 10 min., 30 min., 60 min., 120 min., 240 min., and 480 min. after intravenous injection of the probe. To evaluate our imaging results, an ROI was drawn around the brain region, and the data were analyzed by the following modified equation (1) {24}, where Irel(t) is the relative fluorescence intensity at the certain time point, I(t) is the measured ROI value at this time point, I(pre) is the pre-injection background, and I(30) is the reading at 30 min. Since pre-injection background varied in different mice, this equation allowed us to correct for it. Fluorescence intensity decay curves were then generated based on this equation. Irel(t)=(I(t)−I(pre))/(I(30)−I(pre)) (1)
For in vivo specific binding (SP), the calculation was based on equation (2), where Irel(tg) is the relative fluorescence intensity of Tg2576, and Irel(contr) is the relative fluorescence intensity of the control littermates. P values were calculated by Student test. SP(t)={Irel(tg)−Irel(contr)}/Irel(tg) (2) Ex Vivo Histological Correlation.
Transgenic 11-month and 19-month old Tg2576 mice were used to validate the feasibility of CRANAD-2 as NIR imaging probe. Aged-matched wild type littermates served as controls. Images were recorded before and after i.v. injection of CRANAD-2 at 5.0 mg/Kg dosage. […] Furthermore, the signals from 19-month old Tg2576 (FIG. 11D) were remarkably brighter at all time points.
Semi-quantitative analysis of these images was conducted with selected region of interested (ROI), and two sets of data were generated. By normalizing the fluorescence intensity to that of 30 min. after the injection of the probe, we were able to create four well-fit decay curves with non-linear regression for two binding site model (Prism 3.0) for both 11- and 19-months old groups (R2=0.96, 0.97, 0.97, and 0.94 for 11-month control, tg2576, and 19-month control and tg2576 respectively) (FIG. 9A). By normalizing the signal to background fluorescence intensity (Fpre), and using the ratio between fluorescence intensity at time points studied ((F(t)) and Fpre) we could compare the signal change in Tg2576 group to that of the control group (FIGS. 9B,C)(e.g. F(t)/Fpre). Details of these methods are described in Materials and Methods contained herein.

A further data set deals with Aβ plaques. The experiment in a line: Histological staining of Tg2576 mice brain slices. The following applies: co-staining with Thioflavin S. Here is the method: Tg2576 mice brain tissue was cut into 25 micron slices. The slices were fixed with 4% formalin for 5 min and washed with PBS buffer twice. For Thioflavin S staining the slices were dipped into thioflavin S solution (1.0% in 50% ethanol) for 5 min., then differentiated in 70% ethanol for 5 min., rinsed with distilled water twice and mounted using Vecta shield mounting medium. Similar procedure was used to incubate sliced tissue with our probe. Histological slide was treated with, 0.01% CRANAD-2 in 10% acetone, 40% ethanol and 50% water for 15 min. For co-staining: the procedure was similar. The slices were first stained with thioflavin S, and washed with 70% ethanol for 5 min, then stained with the solution of CRANAD-2.

Turning to `CN(C)c1ccc(/C=C/C2=CC(/C=C/c3ccc(N(C)C)cc3)=[O+][B-](F)(F)O2)cc1` [CRANAD-2], the Clearance from blood entry in data set [1] is “rapid clearance from blood”. In data set [1], the “Clearance from the brain vs blood” value was “significantly slower”. In addition, the BBB penetrating ability result in data set [1] (brain homogenate, fluorescence, HPLC, LC-MS) was “capability to cross BBB”. Further, the “Declining of brain fluorescence signals, Tg2576 vs control” value in the data set on Tg2576 mice (5.0 mg/kg i.v., 11- and 19-month old) was “considerably slower”. In addition, the “Difference in F(t)/Fpre, Tg2576 vs control” value was determined as 0.52 in the data set on Tg2576 mice (11-month old, 120 min); 0.45 in the data set with Tg2576 mice (11-month old, 240 min); 0.43 in the data set on Tg2576 mice (19-month old, 120 min); 0.65 in the data set with Tg2576 mice (19-month old, 240 min). The “Difference in relative fluorescence decay Irel(t), Tg2576 vs control” value is on record as 23% with Tg2576 mice (11-month old, 120 min, 5.0 mg/kg i.v.); 16% in the data set with Tg2576 mice (11-month old, 240 min, 5.0 mg/kg i.v.); 20% in the data set with Tg2576 mice (19-month old, 120 min, 5.0 mg/kg i.v.); 30% with Tg2576 mice (19-month old, 240 min, 5.0 mg/kg i.v.). For the same compound, in the data set with Tg2576 mice (30, 60, 120 and 240 min after injection), the “Fluorescence intensity, transgenic vs control groups” value was “higher than that of the control groups”. The entries for the “Slower decay rate, 19-month vs 11-month old Tg2576” value in the data set on Tg2576 mice (120 min) and in the data set on Tg2576 mice (240 min) were 11% and 13%, respectively. In the data set on Tg2576 mice (120 min and 240 min, 11- and 19-month groups), the “"Smart" amplification factor in vivo (ratio>1.0 = smart)” value is on record as ““smart” probe in vivo”. Besides, the “Staining of Aβ plaques in brain tissue” value with Aβ plaques is on record as “specificity towards Aβ plaques; also recorded: specific staining with Aβ plaques”.
